The subject of series [1] is cell line HT-22. As to the kind of experiment: Reactive oxygen species production in cell line HT-22 (CM-H2DCFDA). The class given is cell-based. The following applies: 5 μM compound, 8 hours. The method, then: A cell line HT-22 (obtained from Dr. David Schubert) derived from the hippocampus playing a part in memory of the brain was treated with 5 mM of glutamate and 5 μM of the lignan compound of the present invention simultaneously for 8 hours. As a control, the cell line HT-22 was not treated with the lignan compound of the present invention. The treated cell line HT-22 was then treated with CM-H2DCFDA (chloromethyl derivative of dichlorodihydrofluorescein diacetate, Molecular Probes) to analyze the production of reactive oxygen species.

Series [2] has as its system lipid peroxidation of the brain tissue. As to the kind of experiment: Lipid peroxidation of brain homogenate supernatant induced by hydrogen peroxide. The class given is biochemical, rat. The method, then:
After anesthesia of a rat, the tissue of the rat was perfused with 0.9% physiological saline solution containing EDTA. The brain was then extracted from the rat and washed with ice-cold 20 mM Tris-HCl (pH 7.4). After removing water, the weight of the brain was measured. The brain was mixed with 0.1 g/ml of ice-cold 20 mM Tris-HCl (pH 7.4) and homogenized. The homogenized brain was centrifuged and the supernatant was collected. 40 μl of the supernatant was mixed with 40 mM of hydrogen peroxide to induce lipid peroxidation. Simultaneously, different concentration (0.5, 1, 5 and 10 μM) of the lignan compounds isolated from the Example 1 were added into the supernatant, respectively. After incubation of the supernatant in water (37° C.) for 30-60 minutes, 162.5 μl of R1 solution (lipid peroxidation assay kit, Cat. No. 437634, Calbiochem) and 37.5 μl of R2 solution (lipid peroxidation assay kit, Cat. No. 437634, Calbiochem) were added into the cultured supernatant, and the supernatant was further incubated at 45° C. for 40 minutes. Then, the absorbance of the incubated medium was measured at 586 nm to quantify the lipid peroxidation.

In series [3] the test system is cell line HT-22. As to the kind of experiment: Cytotoxicity in cell line HT-22. Type of series: cell-based. The note with it: HT-22, 1, 5 and 10 μM, 24 hours, stated for 10 μM. The method, then: In order to examine the cytotoxicity effect of macelignan itself, a cell line HT-22 derived from the hippocampus was treated with macelignan at concentrations (1, 5 and 10 μM) for 24 hours.

The nature of series [4]: Transmission test to the brain (brain uptake clearance, LC/MS). The class given is in vivo. The note with it: male SD rat, 1 mg/kg intravenous. The method, then: PE50 tubes are independently inserted into the femoral vein and femoral artery of a 250 g male SD rat, and syringes individually containing physiological saline solution and heparin (25 I.U.) are connected to tubes, respectively. The macelignan isolated and purified in Example 1 was dissolved in DMSO, and intravenously administered into the rat in the amount of 1 mg/kg. 400 μl of the blood samples were collected from the artery at 0.5, 1, 1.5 and 2 minutes after administration. After last sampling, the head of the rat was rapidly cut, and the brain tissue was extracted and slightly washed with physiological saline solution.
The blood sample prepared in the Example <7-1> was centrifuged at 3,000 rpm for 5 minutes to obtain 100 μl of blood plasma. 500 μl of ethylacetate was added into the blood plasma and the mixture was agitated with a vortex mixer for 10 minutes. Then, the mixture was centrifuged at 3,000 rpm for 5 minutes to obtain 400 μl of the supernatant. […]
The weight of the brain tissue sample prepared in the Example <7-1> was measured, and then saline solution corresponding to the weight of 2 times higher than that of the brain tissue was added into the brain tissue and the mixture was homogenized. […]
The blood sample and brain tissue sample treated in the Example <7-2> were introduced into the LC/MS system, and then the LC/MS analysis was performed according to the method of the Example <7-3> and the area of a macelignan peak was obtained on the chromatograph. The concentration of macelignan was calculated by using the area of the macelignan peak through the standard curve prepared in the Example <7-3>.
In a time-concentration graph of macelignan obtained in the blood sample through the Example <7-4>, AUC0^t (Area Under Curve: AUC) from 0 to the last sample time “tlast”, was obtained with a trapezoidal method (Schaum's Outline of Mathematica, MaGraw-Hill, 2000). Additionally, the amount(Xb) of macelignan was calculated using the concentration of the brain tissue sample. AUC of macelignan may be calculated using the mathematical equation 1. […]

A short description of series [5]: Toxicity in oral administration. The note with it: rat, in vivo; oral administration to rats; data not shown; read-out: 50% lethal dose (LD50). As to the method:
The lignan compound of the present invention was tested for toxicity in oral administration to rats, and as a result, it was observed that the 50% lethal dose (LD50) was more than 2,000 mg/kg (Data is not shown).

In general, clearance refers to the rate of elimination divided by the concentration. A word on the AUC: it is concentration integrated over time. The LD50 is the dose expected to kill half of the subjects tested.

With `COc1cc(C[C@H](C)[C@H](C)Cc2ccc3c(c2)OCO3)ccc1O` [macelignan, (8R,8′S)-7-(3,4-methylenedioxyphenyl)-7′-(4-hydroxy-3-methoxyphenyl)-8,8′-dimethylbutane], the “production of reactive oxygen species induced by glutamate” value in the series on cell line HT-22 [1] (HT-22, 5 mM glutamate) is “inhibited”. The “production of reactive oxygen species occurred naturally in a cell” value in the series with cell line HT-22 [1] (HT-22 not treated with glutamate) was “significantly inhibited”. In addition, in series [2] (10 μM compound, compared with control without hydrogen peroxide), the “lipid peroxidation induced by hydrogen peroxide at 10 μM” value is reported as “in the similar level as the control”. In addition, the “lipid peroxidation induced by hydrogen peroxide” value in series [2] (rat brain supernatant, 40 mM hydrogen peroxide, compound 0.5, 1, 5 and 10 μM) is on record as “dose-dependently inhibited”. Moreover, the cytotoxicity entry with cell line HT-22 [3] is “did not induce cytotoxicity”; with cell line HT-22 [3] (listed as lignan compound of the present invention), “did not show cytotoxicity”. In addition, the clearance in series [4] (brain and plasma, Xb/AUC, read-out: CLuptake (brain uptake clearance)) came out at 0.203 ± 0.039 mL/min. For the same molecule, the “Xb (amount of macelignan in the brain)” value in series [4] (brain taken after the 2 minute sample) is 7.90 ± 1.52 µg. This molecule had an AUC in series [4] (plasma 0 to 2 minutes, trapezoidal method) of 648 ng·h/mL. Also, the LD50 in series [5] is greater than 2000 mg/kg.

For the origin of these results see patent US20080275111A1, “Novel Use of Lignan Compounds” (priority 2005, published 2008).
